Tested on in one assay: not listed separately
Kind of assay: Inhibition of Norovirus recombinant 3CL protease using Edans-EPDFHLQGPEDLAK-Dabcyl as substrate for 30 mins by fluorometry.
Conditions: not given
Regarding `COc1cccc(COC(=O)N[C@@H](CC2CCCCC2)C(=O)N[C@H](C=O)C[C@@H]2CCNC2=O)c1`, the half-inhibitory concentration (IC50) worked out at 1400 nM.
In the case of `O=C[C@H](C[C@@H]1CCNC1=O)NC(=O)[C@H](CC1CCCCC1)NC(=O)OCc1ccccc1F`, the IC50 was 900 nM.
For `O=C[C@H](C[C@@H]1CCNC1=O)NC(=O)[C@H](CC1CCCCC1)NC(=O)OCc1cccc([N+](=O)[O-])c1`, the concentration for half-maximal inhibition (IC50) was 600 nM.
On the same count and under the same terms, in the case of `CC(C)C[C@H](NC(=O)OCc1ccccc1)C(=O)N[C@H](C=O)C[C@@H]1CCNC1=O` it was 600 nM; in that of `O=C(N[C@@H](CC1CCCCC1)C(=O)N[C@@H](C[C@@H]1CCNC1=O)C(O)S(=O)(=O)O)OCc1cccc(I)c1` (some centres undefined), 150 nM.
With `O=C(N[C@@H](CC1CCCCC1)C(=O)N[C@@H](C[C@@H]1CCNC1=O)C(=O)C(=O)NC1CC1)OCc1cccc(F)c1`, the IC50 was found to be 3500 nM.
With `CC(C)(C)OC(=O)Nc1cccc(COC(=O)N[C@@H](CC2CCCCC2)C(=O)N[C@H](C=O)C[C@@H]2CCNC2=O)c1`, the 50% inhibitory concentration (IC50) is 4500 nM.
As to `CC(C)C[C@H](NC(=O)OCc1ccccc1)C(=O)N[C@@H](C[C@@H]1CCNC1=O)C(=O)C(=O)NC1CC1`, the concentration for half-maximal inhibition (IC50) came out at 3400 nM.
`CCOP(=O)(OCC)C(O)[C@H](C[C@@H]1CCNC1=O)NC(=O)[C@H](CC1CCCCC1)NC(=O)OCc1ccccc1Cl` (some centres undefined): the concentration for half-maximal inhibition (IC50) was more than 10000 nM.
For the compound `CS(=O)(=O)NC(=O)[C@H](C[C@@H]1CCNC1=O)NC(=O)[C@H](CC1CCCCC1)NC(=O)OCc1cccc(Cl)c1`, the IC50 is more than 10000 nM.
Still for that read-out and setting: under `CC(C)C[C@H](NC(=O)OCc1cccc(Cl)c1)C(=O)N[C@H](C=O)C[C@@H]1CCNC1=O` stands 900 nM; under `CC(C)C[C@H](NC(=O)OCc1ccccc1)C(=O)N[C@@H](C[C@@H]1CCNC1=O)C(O)S(=O)(=O)O` (some centres undefined), 800 nM.
For the compound `O=C(N[C@@H](CC1CCCCC1)C(=O)N[C@@H](C[C@@H]1CCNC1=O)C(O)S(=O)(=O)O)OCc1cccc(Br)c1` (some centres undefined), the half-inhibitory concentration (IC50) was 150 nM.
Regarding `CCOP(=O)(OCC)C(O)[C@H](C[C@@H]1CCNC1=O)NC(=O)[C@H](CC1CCCCC1)NC(=O)OCc1cccc(Cl)c1` (some centres undefined), the IC50 is more than 10000 nM.
With `CCOP(=O)(OCC)C(O)[C@H](C[C@@H]1CCNC1=O)NC(=O)[C@H](CC1CCCCC1)NC(=O)OCc1ccccc1F` (some centres undefined), the IC50 is more than 10000 nM.
With `O=C[C@H](C[C@@H]1CCNC1=O)NC(=O)[C@H](CC1CCCCC1)NC(=O)OCc1cccc(I)c1`, the IC50 is 350 nM.

In the next assay the test system is Norovirus. The assay is described as follows: Antiviral activity against Norovirus infected in human HG23 cells. The class given is functional, cell-based.
Conditions: not given
For the compound `COc1cccc(COC(=O)N[C@@H](CC2CCCCC2)C(=O)N[C@H](C=O)C[C@@H]2CCNC2=O)c1`, the EC50 came to 150 nM.
In the case of `O=C[C@H](C[C@@H]1CCNC1=O)NC(=O)[C@H](CC1CCCCC1)NC(=O)OCc1ccccc1F`, the EC50 was 80 nM.
`O=C[C@H](C[C@@H]1CCNC1=O)NC(=O)[C@H](CC1CCCCC1)NC(=O)OCc1cccc([N+](=O)[O-])c1` gave an EC50 of 150 nM.
As for `CC(C)C[C@H](NC(=O)OCc1ccccc1)C(=O)N[C@H](C=O)C[C@@H]1CCNC1=O`, it took 200 nM to reach a half-maximal effect (EC50).
In turn, `O=C(N[C@@H](CC1CCCCC1)C(=O)N[C@@H](C[C@@H]1CCNC1=O)C(O)S(=O)(=O)O)OCc1cccc(I)c1` (some centres undefined) gave a 50% effective concentration (EC50) of 40 nM.
Consider `O=C(N[C@@H](CC1CCCCC1)C(=O)N[C@@H](C[C@@H]1CCNC1=O)C(=O)C(=O)NC1CC1)OCc1cccc(F)c1`, for which the EC50 turned out to be 300 nM.
For the compound `CC(C)(C)OC(=O)Nc1cccc(COC(=O)N[C@@H](CC2CCCCC2)C(=O)N[C@H](C=O)C[C@@H]2CCNC2=O)c1`, the response was half-maximal at 1500 nM (EC50).
In the case of `CC(C)C[C@H](NC(=O)OCc1ccccc1)C(=O)N[C@@H](C[C@@H]1CCNC1=O)C(=O)C(=O)NC1CC1`, it took 1100 nM to reach a half-maximal effect (EC50).
Compound `CCOP(=O)(OCC)C(O)[C@H](C[C@@H]1CCNC1=O)NC(=O)[C@H](CC1CCCCC1)NC(=O)OCc1ccccc1Cl` (some centres undefined) yielded an EC50 of 200 nM.
The compound `CS(=O)(=O)NC(=O)[C@H](C[C@@H]1CCNC1=O)NC(=O)[C@H](CC1CCCCC1)NC(=O)OCc1cccc(Cl)c1` came in with a concentration giving a half-maximal response (EC50) of more than 2000 nM.
Still for that read-out and setting: in the case of `CC(C)C[C@H](NC(=O)OCc1cccc(Cl)c1)C(=O)N[C@H](C=O)C[C@@H]1CCNC1=O` it was 100 nM; in that of `CC(C)C[C@H](NC(=O)OCc1ccccc1)C(=O)N[C@@H](C[C@@H]1CCNC1=O)C(O)S(=O)(=O)O` (some centres undefined), 300 nM.
For the compound `O=C(N[C@@H](CC1CCCCC1)C(=O)N[C@@H](C[C@@H]1CCNC1=O)C(O)S(=O)(=O)O)OCc1cccc(Br)c1` (some centres undefined), the EC50 came to 30 nM.
On the same count and under the same terms, in the case of `CCOP(=O)(OCC)C(O)[C@H](C[C@@H]1CCNC1=O)NC(=O)[C@H](CC1CCCCC1)NC(=O)OCc1cccc(Cl)c1` (some centres undefined) it was 60 nM.
`CCOP(=O)(OCC)C(O)[C@H](C[C@@H]1CCNC1=O)NC(=O)[C@H](CC1CCCCC1)NC(=O)OCc1ccccc1F` (some centres undefined) returned an EC50 of more than 2000 nM.
For `O=C[C@H](C[C@@H]1CCNC1=O)NC(=O)[C@H](CC1CCCCC1)NC(=O)OCc1cccc(I)c1`, the concentration for a half-maximal effect (EC50) was 50 nM.

A further assay has as its target T1, Neutrophil elastase (Homo sapiens) (UniProt P08246).
T1 sequence (whole entry): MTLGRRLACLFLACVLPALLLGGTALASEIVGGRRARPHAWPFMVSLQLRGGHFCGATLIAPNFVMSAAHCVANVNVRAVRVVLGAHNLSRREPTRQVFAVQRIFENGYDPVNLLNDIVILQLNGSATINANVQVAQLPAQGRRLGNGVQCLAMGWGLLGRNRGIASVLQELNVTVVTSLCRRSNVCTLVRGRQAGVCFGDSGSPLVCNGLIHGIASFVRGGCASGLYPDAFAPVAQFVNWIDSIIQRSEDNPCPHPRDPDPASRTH
The assay is described as follows: Inhibition of human neutrophil elastase. Conditions: concentration not given here.
Turning to `CCOP(=O)(OCC)C(O)[C@H](C[C@@H]1CCNC1=O)NC(=O)[C@H](CC1CCCCC1)NC(=O)OCc1cccc(Cl)c1` (some centres undefined), the inhibition was found to be 86.5%.

The species named for the next assay is Homo sapiens. Kind of assay: Inhibition of chymotrypsin (unknown origin). Particulars: concentration not given here.
In turn, `CCOP(=O)(OCC)C(O)[C@H](C[C@@H]1CCNC1=O)NC(=O)[C@H](CC1CCCCC1)NC(=O)OCc1cccc(Cl)c1` (some centres undefined) gave an inhibition of 2.4%.

For the next assay, the species on record is Bos taurus. The assay is described as follows: Inhibition of bovine trypsin. Conditions: concentration not given here.
`CCOP(=O)(OCC)C(O)[C@H](C[C@@H]1CCNC1=O)NC(=O)[C@H](CC1CCCCC1)NC(=O)OCc1cccc(Cl)c1` (some centres undefined) displayed an inhibition of 8.8%.

In another assay the target is Prothrombin (Homo sapiens) (UniProt P00734). The assay is described as follows: Inhibition of human thrombin after 10 mins incubation by chromogenic substrate hydrolysis assay.
Conditions: not given
With `CCOP(=O)(OCC)C(O)[C@H](C[C@@H]1CCNC1=O)NC(=O)[C@H](CC1CCCCC1)NC(=O)OCc1cccc(Cl)c1` (some centres undefined), the inhibition turned out to be 0%.

For the next assay, the target named is Coagulation factor X (Homo sapiens) (UniProt P00742). The assay is described as follows: Inhibition of human factor 10a using Pefachrome-tPA substrate. Particulars: concentration not given here.
Sequence of Coagulation factor X (Homo sapiens) (P00742 41-179 limits assumed): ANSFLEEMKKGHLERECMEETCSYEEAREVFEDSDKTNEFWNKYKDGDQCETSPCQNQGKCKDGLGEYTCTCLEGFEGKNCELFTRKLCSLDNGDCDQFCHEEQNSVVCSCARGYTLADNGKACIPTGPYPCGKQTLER
Sequence of Coagulation factor X (Homo sapiens) (P00742 235-488 limits assumed): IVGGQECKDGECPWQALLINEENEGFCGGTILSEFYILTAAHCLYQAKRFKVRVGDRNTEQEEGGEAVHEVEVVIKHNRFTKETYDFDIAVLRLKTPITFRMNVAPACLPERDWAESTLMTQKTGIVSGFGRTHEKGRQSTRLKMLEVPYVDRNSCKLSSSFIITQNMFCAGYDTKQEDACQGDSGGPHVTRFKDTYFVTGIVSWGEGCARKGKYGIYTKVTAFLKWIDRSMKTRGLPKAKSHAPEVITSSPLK
`CCOP(=O)(OCC)C(O)[C@H](C[C@@H]1CCNC1=O)NC(=O)[C@H](CC1CCCCC1)NC(=O)OCc1cccc(Cl)c1` (some centres undefined): the inhibition stood at 0%.

The next assay deals with Plasminogen (Homo sapiens) (UniProt P00747). Kind of assay: Inhibition of plasmin (unknown origin). Conditions: concentration not given here.
Sequence of Plasminogen (Homo sapiens) (P00747 97-580 limits assumed): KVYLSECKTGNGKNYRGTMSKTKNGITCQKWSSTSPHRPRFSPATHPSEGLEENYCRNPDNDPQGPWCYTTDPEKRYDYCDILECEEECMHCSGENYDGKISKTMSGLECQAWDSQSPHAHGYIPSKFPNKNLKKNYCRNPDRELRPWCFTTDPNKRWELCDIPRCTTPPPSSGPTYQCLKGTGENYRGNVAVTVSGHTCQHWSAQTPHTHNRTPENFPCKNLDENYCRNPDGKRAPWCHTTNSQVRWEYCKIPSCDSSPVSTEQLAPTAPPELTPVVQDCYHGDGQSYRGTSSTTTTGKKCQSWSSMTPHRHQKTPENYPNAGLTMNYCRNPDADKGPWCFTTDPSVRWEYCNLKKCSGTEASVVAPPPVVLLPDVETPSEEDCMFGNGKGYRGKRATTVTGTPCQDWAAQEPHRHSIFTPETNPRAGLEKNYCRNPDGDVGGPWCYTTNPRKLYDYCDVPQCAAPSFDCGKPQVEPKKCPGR
Sequence of Plasminogen (Homo sapiens) (P00747 581-810 limits assumed): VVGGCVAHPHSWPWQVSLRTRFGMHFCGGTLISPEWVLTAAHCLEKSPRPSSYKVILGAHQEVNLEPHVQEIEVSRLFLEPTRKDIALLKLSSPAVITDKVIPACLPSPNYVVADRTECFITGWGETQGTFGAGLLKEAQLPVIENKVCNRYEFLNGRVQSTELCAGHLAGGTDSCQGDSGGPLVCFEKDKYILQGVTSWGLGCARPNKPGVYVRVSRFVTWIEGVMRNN
As to `CCOP(=O)(OCC)C(O)[C@H](C[C@@H]1CCNC1=O)NC(=O)[C@H](CC1CCCCC1)NC(=O)OCc1cccc(Cl)c1` (some centres undefined), the inhibition is 15%.

A further assay concerns the target T2, Carboxypeptidase A1 (Homo sapiens) (UniProt P15085).
T2 sequence (whole entry): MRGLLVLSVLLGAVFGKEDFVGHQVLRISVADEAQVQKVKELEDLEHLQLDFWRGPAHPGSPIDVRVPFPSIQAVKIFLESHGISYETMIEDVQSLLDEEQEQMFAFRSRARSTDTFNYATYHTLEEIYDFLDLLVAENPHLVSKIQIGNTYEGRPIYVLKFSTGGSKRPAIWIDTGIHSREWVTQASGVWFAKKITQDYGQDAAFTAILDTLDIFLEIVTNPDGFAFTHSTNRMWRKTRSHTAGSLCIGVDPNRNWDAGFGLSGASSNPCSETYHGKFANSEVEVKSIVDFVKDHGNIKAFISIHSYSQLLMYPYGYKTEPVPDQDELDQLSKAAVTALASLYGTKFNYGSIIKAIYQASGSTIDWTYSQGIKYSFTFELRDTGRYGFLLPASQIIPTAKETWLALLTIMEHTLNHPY
Kind of assay: Inhibition of carboxypeptidase A (unknown origin). Conditions: concentration not given here.
`CCOP(=O)(OCC)C(O)[C@H](C[C@@H]1CCNC1=O)NC(=O)[C@H](CC1CCCCC1)NC(=O)OCc1cccc(Cl)c1` (some centres undefined): the inhibition came out at 14.3%.

Source of the values: ChEMBL document CHEMBL3425482, “Structure-guided design and optimization of dipeptidyl inhibitors of norovirus 3CL protease. Structure-activity relationships and biochemical, X-ray crystallographic, cell-based, and in vivo studies” (J Med Chem, 2015).
